Measured values published in ChEMBL document CHEMBL3992508, “Synthesis and bioactivity investigation of quinone-based dimeric cationic triazolium amphiphiles selective against resistant fungal and bacterial pathogens” (Eur J Med Chem, 2017).
≈ marks a conversion by molar mass, not a printed value. Calls of active or inactive are those of the source. The calls are words filed in the database; no cut-off is given here.

Tests used:
Pseudomonas aeruginosa [1] = assay: Antibacterial activity against Pseudomonas aeruginosa ATCC 27853; assay type: functional
Aspergillus flavus = assay: Antifungal activity against Aspergillus flavus; assay type: functional
Staphylococcus aureus [2] = assay: Antibacterial activity against methicillin-resistant Staphylococcus aureus ATCC 33591; assay type: functional
Enterococcus faecalis [3] = assay: Antibacterial activity against vancomycin-resistant Enterococcus faecalis ATCC 51299; assay type: functional
Escherichia coli [4] = assay: Antibacterial activity against Escherichia coli ATCC 25922; assay type: functional
Klebsiella pneumoniae [5] = assay: Antibacterial activity against Klebsiella pneumoniae ATCC 13883; assay type: functional
Candida albicans [6] = assay: Antifungal activity against azole-resistant Candida albicans ATCC 64124; assay type: functional
Staphylococcus aureus [7] = assay: Antibacterial activity against Staphylococcus aureus ATCC 25923; assay type: functional
Candida albicans [8] = assay: Antifungal activity against azole-susceptible Candida albicans MYA2876; assay type: functional
SK-OV-3 [9] = assay: Cytotoxicity against human SKOV3 cells after 48 hrs; assay type: cell-based; conditions: SK-OV-3, 48 h
SK-OV-3 [10] = assay: Cytotoxicity against human SKOV3 cells at 10 ug/ml after 48 hrs by MTT assay; assay type: cell-based; conditions: sk-ov-3, 48 h
Rhodotorula mucilaginosa = assay: Antifungal activity against Rhodotorula pilimanae; assay type: functional
Cryptococcus neoformans = assay: Antifungal activity against Cryptococcus neoformans; assay type: functional
Candida albicans [11] = assay: Antifungal activity against Candida albicans ATCC 64124 assessed as cell membrane disruption at MIC after 1 hr by Sytox Green dye based fluorescence assay; assay type: functional
Fusarium graminearum = assay: Antifungal activity against Fusarium graminearum B4-A5 assessed as cell membrane disruption at MIC after 1 hr by Sytox Green dye based fluorescence assay; assay type: functional
Staphylococcus aureus [12] = assay: Antibacterial activity against Staphylococcus aureus ATCC 25923 at 5 mg/ml; assay type: functional
Enterococcus faecalis [13] = assay: Antibacterial activity against vancomycin-resistant Enterococcus faecalis ATCC 51299 at 5 mg/ml; assay type: functional
Escherichia coli [14] = assay: Antibacterial activity against Escherichia coli ATCC 25922 at 5 mg/ml; assay type: functional
Klebsiella pneumoniae [15] = assay: Antibacterial activity against Klebsiella pneumoniae ATCC 13883 at 5 mg/ml; assay type: functional
Pseudomonas aeruginosa [16] = assay: Antibacterial activity against Pseudomonas aeruginosa ATCC 27853 at 5 mg/ml; assay type: functional
Staphylococcus aureus [17] = assay: Antibacterial activity against methicillin-resistant Staphylococcus aureus ATCC 33591 at 5 mg/ml; assay type: functional

| Compound | MIC (Pseudomonas aeruginosa [1]) [µg/mL] | MIC (Aspergillus flavus) [µg/mL] | MIC (Staphylococcus aureus [2]) [µg/mL] | MIC (Enterococcus faecalis [3]) [µg/mL] | MIC (Escherichia coli [4]) [µg/mL] | MIC (Klebsiella pneumoniae [5]) [µg/mL] | MIC (Candida albicans [6]) [µg/mL] | MIC (Staphylococcus aureus [7]) [µg/mL] | MIC (Candida albicans [8]) [µg/mL] | IC50 (SK-OV-3 [9]) [µg/mL] | Activity (SK-OV-3 [10]) | MIC (Rhodotorula mucilaginosa) [µg/mL] | MIC (Cryptococcus neoformans) [µg/mL] | other results |
| --- | --- | --- | --- | --- | --- | --- | --- | --- | --- | --- | --- | --- | --- | --- |
| CC[n+]1nn(CCCCCCn2n[n+](CC)c3c2C(=O)c2ccccc2C3=O)c2c1C(=O)c1ccccc1C2=O.O=S(=O)([O-])C(F)(F)F.O=S(=O)([O-])C(F)(F)F | 250 | > 250 | > 250 | 32 | > 250 | 250 | > 250 | 0.125 | > 250 | – | – | – | – | – |
| CCCCCC[n+]1nn(CCCCCCn2n[n+](CCCCCC)c3c2C(=O)c2ccccc2C3=O)c2c1C(=O)c1ccccc1C2=O.O=S(=O)([O-])C(F)(F)F.O=S(=O)([O-])C(F)(F)F | 16 | > 250 | 8 to 16 | 4 | 8 to 16 | 250 | 250 | 4 | > 250 | 109 | Non-Toxic | 15.6 | 125 | – |
| CN[C@H](CC(C)C)C(=O)N[C@H]1C(=O)N[C@@H](CC(N)=O)C(=O)N[C@H]2C(=O)N[C@H]3C(=O)N[C@H](C(=O)N[C@H](C(=O)O)c4cc(O)cc(O)c4-c4cc3ccc4O)[C@H](O)c3ccc(c(Cl)c3)Oc3cc2cc(c3O[C@@H]2O[C@H](CO)[C@@H](O)[C@H](O)[C@H]2O[C@H]2C[C@](C)(N)[C@H](O)[C@H](C)O2)Oc2ccc(cc2Cl)[C@H]1O [VANCOMYCIN] | > 250 | – | 2 to 4 (≈ 1.38 to 2.76 µM) | 125 (≈ 86.3 µM) | 64 to 125 (≈ 44.2 to 86.3 µM) | > 250 | – | – | – | – | – | – | – | – |
| CCCCCCCCCC[n+]1nn(CCCCCCn2n[n+](CCCCCCCCCC)c3c2C(=O)c2ccccc2C3=O)c2c1C(=O)c1ccccc1C2=O.O=S(=O)([O-])C(F)(F)F.O=S(=O)([O-])C(F)(F)F | 4 | 7.81 | 4 to 8 | 1 | 4 to 8 | 32 | 3.91 | 8 | 3.91 | 68.4 | Non-Toxic | 2 | 2 | Activity (Candida albicans [11]): Active; Activity (Fusarium graminearum): Active |
| CCCCCCCC[n+]1nn(CCCCCCn2n[n+](CCCCCCCC)c3c2C(=O)c2ccccc2C3=O)c2c1C(=O)c1ccccc1C2=O.O=S(=O)([O-])C(F)(F)F.O=S(=O)([O-])C(F)(F)F | 4 | 15.6 | 4 to 8 | 1 | 2 to 4 | 16 | 3.91 | 4 | 3.91 | 74 | Non-Toxic | 2 | 3.9 | – |
| OC(Cn1cncn1)(Cn1cncn1)c1ccc(F)cc1F [FLUCONAZOLE] | – | – | – | – | – | – | > 250 | – | 1.56 (≈ 5.09 µM) | – | – | – | – | – |
| CCCCCCCCS(=O)(=O)OC[C@H]1O[C@H](O[C@@H]2[C@@H](O)[C@H](O[C@H]3O[C@H](CN)[C@@H](O)[C@H](O)[C@H]3O)[C@@H](N)C[C@H]2N)[C@H](O)[C@@H](N)[C@@H]1O.Cl.Cl.Cl.Cl | – | > 250 | – | – | – | – | 31.3 | – | 15.6 | – | – | – | 7.8 | – |
| NCC[C@H](O)C(=O)N[C@@H]1C[C@H](N)[C@@H](O[C@H]2O[C@H](CN)[C@@H](O)[C@H](O)[C@H]2O)[C@H](O)[C@H]1O[C@H]1O[C@H](CO)[C@@H](O)[C@H](N)[C@H]1O [AMIKACIN] | 1 (≈ 1.71 µM) | – | 16 (≈ 27.3 µM) | > 250 | 1 (≈ 1.71 µM) | 1 (≈ 1.71 µM) | – | 0.5 (≈ 0.854 µM) | – | – | – | – | – | – |
| NC[C@H]1O[C@H](O[C@H]2[C@H](O)[C@@H](O[C@H]3O[C@H](CO)[C@@H](O)[C@H](N)[C@H]3O)[C@H](N)C[C@@H]2N)[C@H](O)[C@@H](O)[C@@H]1O [KANAMYCIN] | 125 (≈ 258 µM) | – | 125 to 250 (≈ 258 to 516 µM) | 250 (≈ 516 µM) | 4 (≈ 8.26 µM) | 1 (≈ 2.06 µM) | – | 2 to 4 (≈ 4.13 to 8.26 µM) | – | – | – | – | – | – |
| CCCC[n+]1nn(CCCCCCn2n[n+](CCCC)c3c2C(=O)c2ccccc2C3=O)c2c1C(=O)c1ccccc1C2=O.O=S(=O)([O-])C(F)(F)F.O=S(=O)([O-])C(F)(F)F | 32 | > 250 | > 250 | 16 | > 250 | 250 | 250 | 0.125 | > 250 | 115 | Non-Toxic | – | – | – |
| C[n+]1nn(CCCCCCn2n[n+](C)c3c2C(=O)c2ccccc2C3=O)c2c1C(=O)c1ccccc1C2=O.O=S(=O)([O-])C(F)(F)F.O=S(=O)([O-])C(F)(F)F | 250 | > 250 | > 250 | 16 | > 250 | 250 | > 250 | 0.125 | > 250 | 46.1 | Toxic | 62.5 | 125 | – |
| O=C1c2ccccc2C(=O)c2c1nnn2CCCCCCn1nnc2c1C(=O)c1ccccc1C2=O | – | – | – | – | – | – | – | – | – | – | – | – | – | Activity (Staphylococcus aureus [12]): inactive; Activity (Enterococcus faecalis [13]): inactive; Activity (Escherichia coli [14]): inactive; Activity (Klebsiella pneumoniae [15]): inactive; Activity (Pseudomonas aeruginosa [16]): inactive; Activity (Staphylococcus aureus [17]): inactive |
